Test results published in patent US20240197236A1, “ELECTRO-ANATOMIC CARDIAC REPOLARIZATION MAPPING” (University Health Network, priority 2022, published 2024).

System: rabbit heart
Assay: Rabbit heart Langendorff, simultaneous optical mapping and epicardial electrode-grid mapping of repolarization duration
Settings: after 20 uM addition of pinacidil to the perfusate
Experimental: A study was performed to adapt a rabbit heart Langendorff optical mapping model^42 to add the recording of electrical EGMs to a commercially-available electrode array lab (Advisor […] catheter, Abbott Laboratories), after its use in the clinical laboratory for animal use. This involved using a UHN research mapping system in which unipolar EGMs from a 16-electrode grid were used to record cardiac signals with a proprietary mapping system (described previously as UHN Cartesian Mapping System^43) at a sampling rate of 1 kHz. This electrode array was chosen as spacing between the splines allowed recording of the fluorescence from the voltage-sensitive dye RH237. Fluorescence was recorded with a high-speed CMOS camera (Ultima-L, SciMedia, Costa Mesa, CA) at a rate of 500 frames/s. […] A derivative of the vectorcardiogram was obtained by projecting the repolarization loop along its maximum axis where the projection may be called a loop optimized rEGM (i.e., which is a type of repolarization-optimized EGM that in this case is determined using the loop method described with respect to FIG. 5C). A measurement of repolarization duration, called APD^v, was measured from the onset of QRS to baseline return of the loop rEGM. It was hypothesized that rEGM provides vector-derived integrated action potential duration (APD^v) that correlates with local repolarization assessed by optical mapping. […]

## CC(N/C(=N\C#N)Nc1ccncc1)C(C)(C)C (centres unmarked) [Pinacidil, pinacidil]
Baseline APD90 151 ms
  APD (optical APD90 from fluorescence): 89 ms
Baseline APD^v average 142 ms
  ARI (repolarization duration from loop rEGM): 68 ms
